# Source: paper PMC8955975, “Pyrazolo[4,3-c]pyridine Sulfonamides as Carbonic Anhydrase Inhibitors: Synthesis, Biological and In Silico Studies” (Pharmaceuticals, 2022)
# Values joined by “and” are separate entries in the source; they are usually repeats but may differ in a detail not shown here. Identical values can stand only once.
# Experiments:
# [1] = biological target: hCA I (Homo sapiens, UniProt P00915); test: stopped-flow CO2 hydrase assay, hCA I; assay type: biochemical; settings: for Ki: stopped-flow CO2 hydrase assay, mean from 3 different assays
# [2] = biological target: hCA II (Homo sapiens, UniProt P00918); test: stopped-flow CO2 hydrase assay, hCA II; assay type: biochemical; settings: for Ki: stopped-flow CO2 hydrase assay, mean from 3 different assays, read-out: KI hCAII; for selectivity index (SI) toward hCA I / selectivity index (SI) towards hCA IX / selectivity index (SI) towards hCA XII: hCA II inhibitor; for selectivity index (SI) toward hCA I: hCA II versus hCA I; for selectivity index (SI) towards hCA IX: hCA II versus hCA IX; for selectivity index (SI) towards hCA XII: hCA II versus hCA XII
# [3] = biological target: hCA IX (Homo sapiens, UniProt Q16790); test: stopped-flow CO2 hydrase assay, hCA IX; assay type: biochemical; settings: for selectivity index (SI) for hCA I: hCA IX inhibitor, hCA IX versus hCA I; for Ki: stopped-flow CO2 hydrase assay, mean from 3 different assays
# [4] = biological target: hCA XII (Homo sapiens, UniProt O43570); test: stopped-flow CO2 hydrase assay, hCA XII; assay type: biochemical; settings: for Ki: stopped-flow CO2 hydrase assay, mean from 3 different assays
# [5] = biological target: β-CA from E. coli (Escherichia coli, UniProt P61517); test: stopped-flow CO2 hydrase assay, E. coli β-CA; assay type: biochemical
# [6] = biological target: γ-CA from E. coli (Escherichia coli, UniProt P0A9W9); assay type: biochemical; settings: for Ki: stopped-flow CO2 hydrase assay, mean from 3 different assays; for selectivity index (SI) against BpsCAβ: E. coli γ versus BpsCAβ; for selectivity index (SI) against BpsCAγ: E. coli γ versus BpsCAγ; for selectivity index (SI) against E. coli β: E. coli γ versus E. coli β; for selectivity index (SI) against PgiCAγ: E. coli γ versus PgiCAγ
# [7] = biological target: β-CA from Burkholderia pseudomallei (BpsCAβ) (Burkholderia pseudomallei, UniProt Q63Y17); assay type: biochemical; settings: for Ki: read-out: KI BpsCAβ
# [8] = biological target: BpsCAγ (Burkholderia pseudomallei, UniProt Q63SQ4); assay type: biochemical; settings: read-out: KI BpsCAγ
# [9] = biological target: γ-CA from Porphyromonas gingivalis (PgiCAγ) (Porphyromonas gingivalis, UniProt Q7MV79); assay type: biochemical; settings: for Ki: stopped-flow CO2 hydrase assay, mean from 3 different assays
# [10] = biological target: β-CA from Vibrio cholerae (VhCAβ) (Vibrio cholerae, UniProt A0A086SLX8); test: biochemical
# Sequence of β-CA from Vibrio cholerae (VhCAβ) (A0A086SLX8 entry or part of it): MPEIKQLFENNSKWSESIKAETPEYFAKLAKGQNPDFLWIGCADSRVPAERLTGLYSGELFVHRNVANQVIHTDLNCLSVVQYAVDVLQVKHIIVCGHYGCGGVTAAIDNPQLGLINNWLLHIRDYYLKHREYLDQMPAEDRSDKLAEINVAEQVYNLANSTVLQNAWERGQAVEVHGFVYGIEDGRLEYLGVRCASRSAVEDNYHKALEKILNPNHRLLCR
# Sequence of hCA I (P00915 whole entry): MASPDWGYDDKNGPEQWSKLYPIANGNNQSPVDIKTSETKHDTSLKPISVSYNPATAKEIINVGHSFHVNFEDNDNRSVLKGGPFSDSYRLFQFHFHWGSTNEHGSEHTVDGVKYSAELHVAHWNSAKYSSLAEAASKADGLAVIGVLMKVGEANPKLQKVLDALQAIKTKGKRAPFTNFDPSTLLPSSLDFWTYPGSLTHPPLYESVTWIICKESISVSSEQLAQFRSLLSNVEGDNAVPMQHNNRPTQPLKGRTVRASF
# Sequence of hCA XII (O43570 25-354): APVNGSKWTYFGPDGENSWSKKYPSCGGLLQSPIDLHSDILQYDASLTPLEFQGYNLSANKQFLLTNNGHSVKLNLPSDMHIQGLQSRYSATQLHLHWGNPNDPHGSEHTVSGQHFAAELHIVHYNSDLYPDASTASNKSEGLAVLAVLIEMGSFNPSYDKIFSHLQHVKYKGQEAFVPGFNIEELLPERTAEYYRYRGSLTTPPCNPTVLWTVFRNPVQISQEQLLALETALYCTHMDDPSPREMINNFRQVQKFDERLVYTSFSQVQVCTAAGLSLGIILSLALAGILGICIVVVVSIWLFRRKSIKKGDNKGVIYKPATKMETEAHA
# Sequence of β-CA from Burkholderia pseudomallei (BpsCAβ) (Q63Y17 1-256): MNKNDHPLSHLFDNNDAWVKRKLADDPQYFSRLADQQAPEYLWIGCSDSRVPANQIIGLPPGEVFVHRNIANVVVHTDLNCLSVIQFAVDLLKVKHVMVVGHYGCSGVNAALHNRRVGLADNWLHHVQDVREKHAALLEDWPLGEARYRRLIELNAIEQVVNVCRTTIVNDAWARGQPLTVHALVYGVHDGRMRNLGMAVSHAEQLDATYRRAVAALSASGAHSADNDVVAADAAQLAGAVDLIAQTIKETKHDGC
# Sequence of γ-CA from Porphyromonas gingivalis (PgiCAγ) (Q7MV79 entry or part of it): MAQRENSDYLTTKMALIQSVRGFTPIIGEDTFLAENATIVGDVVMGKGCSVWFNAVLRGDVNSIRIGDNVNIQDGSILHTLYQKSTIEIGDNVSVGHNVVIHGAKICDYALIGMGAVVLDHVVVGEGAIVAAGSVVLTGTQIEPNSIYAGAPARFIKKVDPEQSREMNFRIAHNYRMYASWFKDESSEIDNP
# Sequence of BpsCAγ (Q63SQ4 1-174): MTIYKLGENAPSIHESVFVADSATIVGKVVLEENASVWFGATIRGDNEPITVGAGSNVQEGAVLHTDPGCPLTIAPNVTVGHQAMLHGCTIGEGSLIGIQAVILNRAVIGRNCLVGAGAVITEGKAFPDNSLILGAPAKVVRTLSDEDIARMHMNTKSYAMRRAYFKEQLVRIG
# Sequence of γ-CA from E. coli (P0A9W9 whole entry): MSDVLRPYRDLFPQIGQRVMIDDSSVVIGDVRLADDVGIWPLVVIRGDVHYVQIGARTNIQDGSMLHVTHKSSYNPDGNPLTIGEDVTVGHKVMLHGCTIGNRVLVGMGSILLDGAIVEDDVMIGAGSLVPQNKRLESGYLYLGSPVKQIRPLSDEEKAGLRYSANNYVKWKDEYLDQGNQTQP
# Sequence of β-CA from E. coli (P61517 whole entry): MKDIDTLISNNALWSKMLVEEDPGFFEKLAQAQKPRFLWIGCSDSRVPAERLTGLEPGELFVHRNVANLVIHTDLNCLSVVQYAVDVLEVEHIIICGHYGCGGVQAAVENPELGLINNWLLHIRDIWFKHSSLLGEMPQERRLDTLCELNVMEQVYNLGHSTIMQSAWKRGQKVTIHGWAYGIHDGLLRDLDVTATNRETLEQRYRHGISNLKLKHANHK
Compound,Ki [1],Ki [2],Ki [3],Ki [4],Ki [5],Ki [6],Ki [7],Ki [8],Ki [9],Ki [10],melting point,other results
"COC(=O)c1cn(CCS(N)(=O)=O)cc2c(=O)[nH]nc1-2 [Compound 1a, Methyl 3-oxo-5-(2-sulfamoylethyl)-3,5-dihydro-2H-pyrazolo[4,3-c]pyridine-7-carboxylate]",8010 nM,7330 nM,97.9 nM,282 nM,862 nM,61.8 nM,654 nM,913 nM,783 nM,2330 nM,> 300 °C,selectivity index (SI) for hCA I [3]: 81.8
"COC(=O)c1cn(-c2ccc(S(N)(=O)=O)cc2)cc2c(=O)[nH]nc1-2 [Compound 1b, Methyl 3-oxo-5-(4-sulfamoylphenyl)-3,5-dihydro-2H-pyrazolo[4,3-c]pyridine-7-carboxylate]",157 nM,51.4 nM,319 nM,358 nM,3460 nM,57.8 nM,229 nM,513 nM,91 nM,844 nM,> 300 °C,"decreased activity against hCA I ([1]; compared with 1f): ~ 2.7 times; selectivity index (SI) against BpsCAβ ([6]; E. coli γ-CA inhibitor): 3.96; selectivity index (SI) against BpsCAγ ([6]; E. coli γ-CA inhibitor): 8.88; selectivity index (SI) against E. coli β ([6]; E. coli γ-CA inhibitor): 59.8; selectivity index (SI) against PgiCAγ ([6]; E. coli γ-CA inhibitor): 1.59 and 1.57 and 1.5; selectivity index (SI) against VhCAβ ([6]; E. coli γ-CA inhibitor, E. coli γ versus VhCAβ): 14.6"
"COC(=O)c1cn(-c2cccc(S(N)(=O)=O)c2)cc2c(=O)[nH]nc1-2 [Compound 1c, Methyl 3-oxo-5-(3-sulfamoylphenyl)-3,5-dihydro-2H-pyrazolo[4,3-c]pyridine-7-carboxylate]",1440 nM,247 nM,590 nM,143 nM,3840 nM,79.1 nM,785 nM,614 nM,637 nM,913 nM,> 300 °C,
"COC(=O)C1=CN(Cc2ccc(S(N)(=O)=O)cc2)C=C2C(=O)N=NC21 (stereo not drawn) [Compound 1d, 3-oxo-5-(4-sulfamoylbenzyl)-3,5-dihydro-2H-pyrazolo[4,3-c]pyridine-7-carboxylate]",,,,,,,,,,,> 300 °C,
"COC(=O)c1cn(CCc2ccc(S(N)(=O)=O)cc2)cc2c(=O)[nH]nc1-2 [Compound 1e, Methyl 3-oxo-5-(4-sulfamoylphenethyl)-3,5-dihydro-2H-pyrazolo[4,3-c]pyridine-7-carboxylate]",864 nM,658 nM,849 nM,397 nM,3140 nM,58.1 nM,683 nM,1340 nM,96.1 nM,840 nM,> 300 °C,selectivity index (SI) against BpsCAβ ([6]; E. coli γ-CA inhibitor): 3.96; selectivity index (SI) against BpsCAγ ([6]; E. coli γ-CA inhibitor): 8.88; selectivity index (SI) against E. coli β ([6]; E. coli γ-CA inhibitor): 59.8; selectivity index (SI) against PgiCAγ ([6]; E. coli γ-CA inhibitor): 1.59
COC(=O)c1cn(CC(=O)Nc2ccc(S(N)(=O)=O)cc2)cc2c(=O)[nH]nc1-2 [Compound 1f],58.8 nM,6.6 nM,907 nM,475 nM,3650 nM,66.8 nM,236 nM,2180 nM,668 nM,467 nM,> 300 °C,selectivity index (SI) toward hCA I [2]: 9; selectivity index (SI) towards hCA IX [2]: 137.5; selectivity index (SI) towards hCA XII [2]: 71.9
"CC(=O)N1CC(Nc2ccc(S(N)(=O)=O)cc2)=CC1=O [Compound 1g, 4-((1-Acetyl-5-oxo-2,5-dihydro-1H-pyrrol-3-yl)amino)benzenesulfonamide]",66.8 nM,41.7 nM,294 nM,509 nM,454 nM,205 nM,664 nM,97.1 nM,83.1 nM,1450 nM,285 to 287 °C,"selectivity index (SI) towards VhCAβ ([9]; PgiCAγ inhibitor, PgiCAγ versus VhCAβ): 17.4"
"CC(=O)N1CC(Nc2cccc(S(N)(=O)=O)c2)=CC1=O [Compound 1h, 3-((1-Acetyl-5-oxo-2,5-dihydro-1H-pyrrol-3-yl)amino)benzenesulfonamide]",136 nM,61.7 nM,94.3 nM,714 nM,712 nM,524 nM,2960 nM,833 nM,90 nM,2620 nM,,
"Cc1cc(O)cc(=O)n1CCS(N)(=O)=O [Compound 1i, 2-(4-hydroxy-6-methyl-2-oxopyridin-1(2H)-yl)ethane-1-sulfonamide]",5440 nM,6790 nM,79.6 nM,105 nM,3050 nM,92.7 nM,96.4 nM,192 nM,95.6 nM,2240 nM,243 to 245 °C,selectivity index (SI) for hCA I [3]: 74.9; selectivity index (SI) against VhCAβ [7]: 23.2; selectivity index (SI) against the β-CA from E. coli [7]: 31.6
"NS(=O)(=O)CCNC=C1C(=O)Oc2ccccc2C1=O [Compound 1j, 2-(((2,4-dioxochroman-3-ylidene)methyl)amino)ethane-1-sulfonamide]",3860 nM,5710 nM,97.8 nM,285 nM,94.9 nM,67.1 nM,789 nM,625 nM,84.3 nM,642 nM,197 to 199 °C,
"CC12CC(c3ccccc3O1)C(C(N)=O)C(=O)N2CCc1ccc(S(N)(=O)=O)cc1 (stereo not drawn) [Compound 1k, 2-methyl-4-oxo-3-(4-sulfamoylphenethyl)-3,4,5,6-tetrahydro-2H-2,6-methanobenzo[g][1,3]oxazocine-5-carboxamide]",88.3 nM,5.6 nM,421 nM,34.5 nM,3860 nM,63.5 nM,212 nM,952 nM,202 nM,356 nM,225 to 227 °C,"selectivity index (SI) toward hCA I [2]: 15.8; selectivity index (SI) towards hCA IX [2]: 75.25; selectivity index (SI) towards hCA XII [2]: 6; selectivity index (SI) towards hCA IX ([4]; hCA XII inhibitor, hCA XII versus hCA IX): 12.2"
